Experimental data from ChEMBL document CHEMBL5352412, “Discovery of 1,2-diphenylethene derivatives as human DNA topoisomerase II catalytic inhibitors and antitumor agents” (Eur J Med Chem, 2022).

Columns and labels:
HepG2 = assay: Antiproliferative activity against human HepG2 cells incubated for 72 hrs by CCK8 assay; type: functional, cell-based; details: Homo sapiens, HepG2, 72 h
MDA-MB-231 = assay: Antiproliferative activity against human MDA-MB-231 cells incubated for 72 hrs by CCK8 assay; type: functional, cell-based; details: Homo sapiens, MDA-MB-231, 72 h
[1] = biological target: T1, DNA topoisomerase 2-alpha (Homo sapiens, UniProt P11388); assay: Inhibition of human topoisomerase 2-alpha assessed as reduction in relaxation of pBR322 DNA at 25 uM measured after 30 mins by agarose gel electrophoresis method relative to control
[2] = biological target: T1, DNA topoisomerase 2-alpha; assay: Inhibition of human topoisomerase 2-alpha assessed as reduction in relaxation of pBR322 DNA at 100 uM measured after 30 mins by agarose gel electrophoresis method relative to control
[3] = biological target: T1, DNA topoisomerase 2-alpha; assay: Inhibition of human topoisomerase 2-alpha assessed as reduction in relaxation of pBR322 DNA measured after 30 mins by agarose gel electrophoresis method

T1 sequence (P11388 whole entry): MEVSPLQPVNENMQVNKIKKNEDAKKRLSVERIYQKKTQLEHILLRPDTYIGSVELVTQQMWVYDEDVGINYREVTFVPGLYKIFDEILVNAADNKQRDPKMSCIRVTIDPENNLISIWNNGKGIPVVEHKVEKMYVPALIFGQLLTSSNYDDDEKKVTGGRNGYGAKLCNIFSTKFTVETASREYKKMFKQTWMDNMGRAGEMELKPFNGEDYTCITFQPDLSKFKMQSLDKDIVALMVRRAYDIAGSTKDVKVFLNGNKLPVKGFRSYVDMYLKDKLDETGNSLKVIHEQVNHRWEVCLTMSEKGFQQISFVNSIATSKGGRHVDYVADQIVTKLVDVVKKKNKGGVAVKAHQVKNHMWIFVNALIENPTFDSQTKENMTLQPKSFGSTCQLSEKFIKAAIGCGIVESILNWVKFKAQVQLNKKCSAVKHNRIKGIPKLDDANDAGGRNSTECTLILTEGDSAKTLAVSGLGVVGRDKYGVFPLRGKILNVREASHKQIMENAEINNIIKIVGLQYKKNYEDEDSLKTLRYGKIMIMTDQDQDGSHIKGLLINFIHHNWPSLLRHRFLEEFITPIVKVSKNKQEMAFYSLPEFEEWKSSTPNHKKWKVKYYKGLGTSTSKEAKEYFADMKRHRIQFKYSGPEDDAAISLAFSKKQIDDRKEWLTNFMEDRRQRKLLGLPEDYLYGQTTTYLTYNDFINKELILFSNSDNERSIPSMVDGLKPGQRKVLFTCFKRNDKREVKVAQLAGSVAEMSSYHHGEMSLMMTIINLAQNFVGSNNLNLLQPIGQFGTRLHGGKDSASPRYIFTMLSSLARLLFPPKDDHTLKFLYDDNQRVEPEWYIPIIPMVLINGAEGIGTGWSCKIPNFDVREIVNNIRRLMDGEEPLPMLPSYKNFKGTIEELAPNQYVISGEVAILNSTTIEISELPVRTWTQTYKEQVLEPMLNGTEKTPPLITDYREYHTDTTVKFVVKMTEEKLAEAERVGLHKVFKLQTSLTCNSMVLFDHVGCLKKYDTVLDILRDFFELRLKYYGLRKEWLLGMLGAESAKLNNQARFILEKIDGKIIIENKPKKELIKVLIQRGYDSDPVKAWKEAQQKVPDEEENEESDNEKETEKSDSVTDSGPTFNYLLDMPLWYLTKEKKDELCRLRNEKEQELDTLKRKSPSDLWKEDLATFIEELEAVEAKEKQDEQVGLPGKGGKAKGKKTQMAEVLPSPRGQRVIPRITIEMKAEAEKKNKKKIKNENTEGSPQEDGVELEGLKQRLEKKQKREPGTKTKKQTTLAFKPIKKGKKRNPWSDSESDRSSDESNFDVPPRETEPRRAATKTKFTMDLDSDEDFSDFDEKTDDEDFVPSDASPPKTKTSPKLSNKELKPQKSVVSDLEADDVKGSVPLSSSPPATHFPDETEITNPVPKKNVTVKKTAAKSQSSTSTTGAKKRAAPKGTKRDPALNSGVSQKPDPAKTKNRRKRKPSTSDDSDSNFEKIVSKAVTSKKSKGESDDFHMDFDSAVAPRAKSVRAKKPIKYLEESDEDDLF

IC50 (HepG2) | IC50 (MDA-MB-231) | inhibition [1] | inhibition [2] | IC50 [3] | SMILES
9.5 µM | 7.2 µM | 81.3% | 87.9% |  | Oc1cc(O)cc(/C=C/c2cc(-c3ccccc3)ccc2O)c1
18.6 µM | 12.6 µM | 75.4% | 95.5% |  | O=[N+]([O-])c1cccc(-c2ccc(O)c(/C=C/c3cc(O)cc(O)c3)c2)c1
20.5 µM | 20.1 µM | 21.3% | 82.1% | 59.8 µM | Oc1cc(O)cc(/C=C/c2cc(-c3ccoc3)ccc2O)c1
24.3 µM | 13.6 µM | 79.5% | 94.5% |  | O=C(/C=C/c1ccccc1)Nc1cc(/C=C/c2cc(O)cc(O)c2)ccc1O
